Earlier results, collected in US7393692B2, “SERS method for rapid pharmacokinetic analysis of drugs in saliva” (Real-Time Analyzers, Inc., priority 2004, dated 2008).

What was measured:
[1] = target: T1, dihydropyrimidine dehydrogenase (DPD) (Homo sapiens, UniProt Q12882); settings: patient with the normal amount of DPD
T1 construct: endogenous in cells; host or cells: human individuals / hypothetical cancer patients (in vivo metabolism)
T1 sequence (Q12882 4-1025): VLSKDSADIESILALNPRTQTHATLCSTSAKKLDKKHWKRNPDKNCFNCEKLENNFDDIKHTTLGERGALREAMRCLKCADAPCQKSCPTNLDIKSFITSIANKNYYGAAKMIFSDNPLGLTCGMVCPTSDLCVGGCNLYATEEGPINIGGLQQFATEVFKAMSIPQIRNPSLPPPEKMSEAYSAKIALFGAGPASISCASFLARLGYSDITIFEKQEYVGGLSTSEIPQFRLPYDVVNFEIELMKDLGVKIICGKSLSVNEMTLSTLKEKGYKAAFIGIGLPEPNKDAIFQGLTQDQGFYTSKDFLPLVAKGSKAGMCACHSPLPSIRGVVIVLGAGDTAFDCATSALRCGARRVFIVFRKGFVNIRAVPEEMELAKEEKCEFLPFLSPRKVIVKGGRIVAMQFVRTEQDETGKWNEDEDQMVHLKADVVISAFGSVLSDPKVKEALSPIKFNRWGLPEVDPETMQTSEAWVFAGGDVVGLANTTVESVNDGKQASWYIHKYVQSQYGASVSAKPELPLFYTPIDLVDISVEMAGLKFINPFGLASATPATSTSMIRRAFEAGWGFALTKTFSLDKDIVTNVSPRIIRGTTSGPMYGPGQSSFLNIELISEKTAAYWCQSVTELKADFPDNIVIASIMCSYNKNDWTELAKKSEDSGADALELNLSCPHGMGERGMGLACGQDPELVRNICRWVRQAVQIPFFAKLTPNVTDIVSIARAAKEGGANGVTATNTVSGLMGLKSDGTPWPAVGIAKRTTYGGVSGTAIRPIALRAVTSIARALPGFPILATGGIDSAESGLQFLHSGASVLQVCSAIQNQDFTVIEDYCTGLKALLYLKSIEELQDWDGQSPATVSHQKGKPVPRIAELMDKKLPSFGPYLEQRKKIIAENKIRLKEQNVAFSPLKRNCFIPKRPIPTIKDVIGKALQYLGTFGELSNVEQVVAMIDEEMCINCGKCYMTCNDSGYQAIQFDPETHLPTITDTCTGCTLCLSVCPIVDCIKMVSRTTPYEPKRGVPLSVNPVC

[2] = patient dependent

5-FU metabolized to 5-FUH2 on average [1]: about 50%
5-FU concentration in saliva, maximum ([2]; closely matches plasma): 15 to 28 µg/mL
5-FU concentration in saliva, three hour minimum ([2]; three hour minimum): 0.1 µg/mL
SMILES: O=c1[nH]cc(F)c(=O)[nH]1 [5-FU, 5-fluorouracil]
